According to patent US20030166561A1, “Peptide” (priority 1999, published 2003):
Where no end group is shown, it is not given here.

How the values were obtained:
βTC6-F7 cells = experiment: Effect of preptin on glucose-stimulated insulin secretion from cultured βTC6-F7 cells; type: cell-based, murine; conditions: 10 mM glucose
Procedure: Insulin and amylin are known to modulate β-cell insulin secretion via presumed autocrine mechanisms. The effect of preptin on insulin secretion was therefore tested using a β-cell secretagogue protocol βTC6-F7 cells were subcultured at passage #52 into 24-well plates at 4×10^5 cells/well. They were grown for 3d in nDMEM to 80% confluence, then washed twice with KRB-HEPES. Stock preptin was serially diluted in incubation medium containing 10 mM D(+) glucose to yield final concentrations of 150, 75, 25, 5, 1 and 0.1 nM. Cells were then washed, and 1 ml/well of incubation medium containing 10 mM and-various final preptin concentrations was added to each well. Cells were incubated at 37° C. for 2 h, then medium removed. Cells were washed thrice with PBS, then lysed with 500 μl of lysis buffer. Incubation medium was centrifuged (16,000×g, 3 min) and the supernatant separated from pelleted debris. Incubation medium and lysates were then analyzed for insulin, preptin and protein as above.

[1] = system: isolated perfused rat pancreas; experiment: Insulin secretion from glucose-stimulated isolated-perfused rat pancreas (infusion of preptin or anti-preptin γ-globulin); conditions: 75 nM preptin, 20 mM glucose; compared with control (0-added preptin); p=0.03
Procedure: Pancreases from fasted adult male Wistar rats (300±25 g) were isolated and prepared (Grodsky and Fanska 1975). Pancreases were perfused with KHB supplemented with 4% dextran, 0.5% BSA, 3 mM arginine and 5.5 mM glucose. Perfusate was gassed with 95% 02:5% CO2 and infused by peristaltic pump (2.7 ml.min^−1 without re-circulation). Pancreases were perfused and equilibrated for 20 min prior to each 70 min perfusion experiment. 10 min into the experiment either carrier buffer (0.1% BSA in 0.9% NaCl), preptin dissolved in carrier buffer, anti-preptin Ig or non-immunised rabbit Ig (both diluted in carrier buffer) were introduced via a side-arm infusion (final concentrations in perfusate: 75 nM preptin; 35 μg.ml^−1 Ig). In addition, at 25 min, glucose was infused for 20 min (final concentration in perfusate: 20 mM). […]
Pancreases were perfused with KHB supplemented with 4% dextran, 0.5% BSA, 3 mM-arginine and 5.5 mM glucose (final concentrations). […] 10-min into the experiment either anti-preptin γ-globulin or non-immune rabbit γ-globulin were introduced via a side-arm infusion (final γ-globulin concentration in perfusate: 35 μg.ml^−1 in carrier buffer (0.1% BSA in 0.9% NaCl). In addition, at 25-min, glucose was infused for 20-min (measured final concentration in perfusate: 20 mM). Continuous 1-min fractions were collected on ice and assayed for insulin (RIA).

DVSTSQAVLPDDFPRYPVGKFFKFDTWRQSAGRL [synthetic rat preptin, 34 amino acid peptide, Asp69-Leu102 of rat proIGF-II E-peptide, chemically synthesized using Fmoc chemistry]
preptin concentration at which effect on insulin secretion reached maximal (βTC6-F7 cells): 75 nM | glucose-stimulated secretion of insulin (βTC6-F7 cells; 2 h, 37° C., compared to controls (0 added preptin)): enhanced | preptin concentration at which significant effects on insulin secretion were detected (βTC6-F7 cells; compared to controls (0 added preptin)): ≥ 0.1 nM | enhancement of second phase of insulin secretion (areas-under-curve) [1]: 30%
